From PMC6785188 (ACS chemical neuroscience, 2019) come the findings set out here.

Broadly, the EC50 is the concentration at which the effect is half-maximal. As usually defined, the Emax is the greatest response seen or fitted, relative to the assay's reference.

For assay [1], the target named is T1, D1 (Homo sapiens, UniProt P21728). As to the kind of experiment: D1R GS-mediated cAMP accumulation GloSensor assay. The settings on record: for activity in GS-cAMP accumulation (in words): GloSensor; for Emax: read-out: GS-cAMP EMAX. The class given is cell-based. For orientation: cAMP levels reflect the balance of adenylyl cyclase and phosphodiesterase activity.

The target in assay [2] is T1, D1. As to the kind of experiment: BRET β-arrestin2 recruitment assay. The settings on record: for activity in β-arrestin2 recruitment (in words): BRET; for Emax: read-out: β-arrestin2 EMAX. The class given is cell-based. A general note: In BRET a luciferase serves as donor, and the signal depends on an acceptor being close.
Assay [3] concerns 6-OHDA-lesioned mice. Put plainly: Motor activity study in 6-OHDA-lesioned mice. It counts as in vivo. The settings on record: 5 mg/kg i.p.

T1 sequence (P21728 whole entry): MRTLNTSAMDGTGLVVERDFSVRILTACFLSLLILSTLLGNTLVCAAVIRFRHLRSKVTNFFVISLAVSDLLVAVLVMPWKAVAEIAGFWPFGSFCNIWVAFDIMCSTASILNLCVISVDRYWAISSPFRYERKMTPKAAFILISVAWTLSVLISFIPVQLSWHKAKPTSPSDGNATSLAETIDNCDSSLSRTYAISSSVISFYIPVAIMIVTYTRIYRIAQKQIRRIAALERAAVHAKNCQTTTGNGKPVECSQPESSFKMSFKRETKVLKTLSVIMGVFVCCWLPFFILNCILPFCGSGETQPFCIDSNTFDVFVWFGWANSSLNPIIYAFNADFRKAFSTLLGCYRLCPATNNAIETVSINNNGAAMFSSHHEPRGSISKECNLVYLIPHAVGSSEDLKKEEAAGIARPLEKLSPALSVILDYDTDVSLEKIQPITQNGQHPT

Consider `Cc1cc(Oc2nccc3occc23)ccc1C1=CCN(C)CC1` [Compound 1, 4-(3-Methyl-4-(1-methyl-1,2,3,6-tetrahydropyridin-4-yl)-phenoxy)furo[3,2-c]pyridine], for which the “activity in GS-cAMP accumulation (in words)” value in assay [1] is “largely inactive”. In assay [2], the “activity in β-arrestin2 recruitment (in words)” value was “largely inactive”.

Take `Cc1cc(Oc2nccc3occc23)ccc1-c1cc[nH]c(=O)c1` [Compound 3, 4-(4-(Furo[3,2-c]pyridin-4-yloxy)-2-methylphenyl)pyridin-2(1H)-one]: in assay [1], a half-maximal response (EC50) required 176 nM and the Emax was 81%. Also, in assay [2], the “activity in β-arrestin2 recruitment (in words)” value is “no activity”.

Take `Cc1cc(Oc2nccc3occc23)ccc1-c1cc(=O)[nH]cn1` [Compound 5, 6-(4-(Furo[3,2-c]pyridin-4-yloxy)-2-methylphenyl)pyrimidin-4(3H)-one]: in assay [1], a half-maximal effect (EC50) was put at 133 nM and the Emax was 96%. Also, the EC50 in assay [2] was over 10000 nM.

Consider `Cc1cc(Oc2nccc3occc23)ccc1-c1cc(N)nc(N)n1` [Compound 8, 6-(4-(Furo[3,2-c]pyridin-4-yloxy)-2-methylphenyl)pyrimidine-2,4-diamine], for which the EC50 in assay [1] is over 10000 nM. The “activity in β-arrestin2 recruitment (in words)” value in assay [2] was “no activity”.

Consider `Cc1cc(Oc2nccc3occc23)ccc1-c1cc(=O)[nH]c(=O)[nH]1` [Compound 9, 6-(4-(Furo[3,2-c]pyridin-4-yloxy)-2-methylphenyl)pyrimidine-2,4(1H,3H)-dione], for which, in assay [1], the EC50 stood at 9 nM and the Emax worked out at 78%. Moreover, in assay [2], the EC50 was determined as 2090 nM and the Emax was 37%.

Regarding `Cc1cc(Oc2nccc3occc23)ccc1-c1c(C)cnc(=O)n1C` [Compound 11, 6-(4-(Furo[3,2-c]pyridin-4-yloxy)-2-methylphenyl)-1,5-dimethylpyrimidin-2(1H)-one], the EC50 is 1.8 nM in assay [1] and 151 nM in assay [2]. In addition, the figures for the Emax in assay [1] and in assay [2] were 88% and 19%, respectively.

In the case of `Cc1cc(Oc2nccc3occc23)ccc1-c1cn[nH]c(=O)c1C` [Compound 12, 5-(4-(Furo[3,2-c]pyridin-4-yloxy)-2-methylphenyl)-4-methylpyridazin-3(2H)-one], in assay [1], the EC50 is 1.1 nM and the Emax came out at 92%. In addition, in assay [2], a half-maximal response (EC50) required 196 nM and the Emax amounted to 63%.

As for `Cc1cc(Oc2nccc3occc23)ccc1-c1c(C)cn[nH]c1=O` [Compound 13, 4-(4-(Furo[3,2-c]pyridin-4-yloxy)-2-methylphenyl)-5-methylpyridazin-3(2H)-one], in assay [1], the EC50 amounted to 205 nM and the Emax was found to be 82%. Also, the “activity in β-arrestin2 recruitment (in words)” value in assay [2] was “no activity”.

`CCn1c(-c2ccc(Oc3nccc4occc34)cc2C)c(C)c(=O)[nH]c1=O` [Compound 17, 1-Ethyl-6-(4-(furo[3,2-c]pyridin-4-yloxy)-2-methylphenyl)-5-methylpyrimidine-2,4(1H,3H)-dione]: in assay [1], the EC50 is 0.08 nM and the Emax is 95%. In assay [2], the EC50 stood at 13 nM and the Emax was 65%.

Consider `Cc1cc(Oc2nccc3occc23)ccc1-c1c(C)c(=O)[nH]c(=O)n1CC1CC1` [Compound 19, 1-(Cyclopropylmethyl)-6-(4-(furo[3,2-c]pyridin-4-yloxy)-2-methylphenyl)-5-methylpyrimidine-2,4(1H,3H)-dione], for which, in assay [1], the response was half-maximal at 0.5 nM (EC50) and the maximal response (Emax) amounted to 84%. The “activity in β-arrestin2 recruitment (in words)” value in assay [2] is reported as “no activity”.

As to `Cc1cc(Oc2nccc3occc23)ccc1-c1c(C)c(=O)[nH]c(=O)n1C1CCC1` [Compound 20, 1-Cyclobutyl-6-(4-(furo[3,2-c]pyridin-4-yloxy)-2-methylphenyl)-5-methylpyrimidine-2,4(1H,3H)-dione], in assay [1], the midpoint of the response, the EC50, lay at 0.8 nM and the Emax is 82%. In assay [2], the “activity in β-arrestin2 recruitment (in words)” value is listed as “no activity”.

Consider `Cc1cc(-c2c(C)c(=O)[nH]c(=O)n2C)ccc1Oc1nccc2occc12` [Compound 26, 6-(4-(Furo[3,2-c]pyridin-4-yloxy)-3-methylphenyl)-1,5-dimethylpyrimidine-2,4(1H,3H)-dione], for which, in assay [1], the response was half-maximal at 33 nM (EC50) and the Emax is 100%. In assay [2], the “activity in β-arrestin2 recruitment (in words)” value is recorded as “no activity”.

For the molecule `Cc1c(-c2ccc(Oc3nccc4occc34)cc2)n(C)c(=O)[nH]c1=O` [Compound 27, 6-(4-(Furo[3,2-c]pyridin-4-yloxy)phenyl)-1,5-dimethylpyrimidine-2,4(1H,3H)-dione], the EC50 in assay [1] is 0.08 nM; in assay [2], 40 nM. In addition, the Emax in assay [1] was 96%; in assay [2], 75%.

Consider `Cc1cc(O)ccc1-c1c(C)c(=O)[nH]c(=O)n1C` [Compound 28, 6-(4-Hydroxy-2-methylphenyl)-1,5-dimethylpyrimidine-2,4-(1H,3H)-dione], for which the “activity in GS-cAMP accumulation (in words)” value in assay [1] is “inactive”. Also, the “activity in β-arrestin2 recruitment (in words)” value in assay [2] was “inactive”.

As for `COc1ccc(-c2c(C)c(=O)[nH]c(=O)n2C)c(C)c1` [Compound 29, 6-(4-Methoxy-2-methylphenyl)-1,5-dimethylpyrimidine-2,4-(1H,3H)-dione], the “activity in GS-cAMP accumulation (in words)” value in assay [1] is “inactive”. Also, the “activity in β-arrestin2 recruitment (in words)” value in assay [2] was “inactive”.

`Cc1cc(Oc2ccccn2)ccc1-c1c(C)c(=O)[nH]c(=O)n1C` [Compound 30, 1,5-Dimethyl-6-(2-methyl-4-(pyridin-2-yloxy)phenyl)pyrimidine-2,4(1H,3H)-dione]: the figures for the Emax in assay [1] and in assay [2] were 107% and 40%, respectively.

On to `COc1ccnc(Oc2ccc(-c3c(C)c(=O)[nH]c(=O)n3C)c(C)c2)c1` [Compound 31, 6-(4-((4-Methoxypyridin-2-yl)oxy)-2-methylphenyl)-1,5-dimethylpyrimidine-2,4(1H,3H)-dione], for which the EC50 in assay [1] is 2 nM; in assay [2], 52 nM. Besides, the Emax in assay [1] worked out at 108%; in assay [2], 27%.

For the molecule `Cc1cc(Oc2ncccc2C(F)(F)F)ccc1-c1c(C)c(=O)[nH]c(=O)n1C` [Compound 32, 1,5-Dimethyl-6-(2-methyl-4-((3-(trifluoromethyl)pyridin-2-yl)-oxy)phenyl)pyrimidine-2,4(1H,3H)-dione], the Emax in assay [1] amounted to 118%; in assay [2] it was 30%.

Turning to `COc1ccnc(Oc2ccc(-c3c(C)c(=O)[nH]c(=O)n3C)c(C)c2)c1C#N` [Compound 33, 2-(4-(3,5-Dimethyl-2,6-dioxo-1,2,3,6-tetrahydropyrimidin-4-yl)-3-methylphenoxy)-4-methoxynicotinonitrile], in assay [1], a half-maximal response (EC50) required 23 nM and the maximal response (Emax) came out at 59%. Also, in assay [2], the “activity in β-arrestin2 recruitment (in words)” value is recorded as “no activity”.

As for `Cc1cc(Oc2nccc(Cl)c2C(F)(F)F)ccc1-c1c(C)c(=O)[nH]c(=O)n1C` [Compound 34, 6-(4-((4-Chloro-3-(trifluoromethyl)pyridin-2-yl)oxy)-2-methyl-phenyl)-1,5-dimethylpyrimidine-2,4(1H,3H)-dione], in assay [1], the EC50 amounted to 105 nM and the Emax is 82%. For the same molecule, in assay [2], the “activity in β-arrestin2 recruitment (in words)” value is “no activity”.

Consider `Cc1cc(Oc2nccc3ccccc23)ccc1-c1c(C)c(=O)[nH]c(=O)n1C` [Compound 38, 6-(4-(Isoquinolin-1-yloxy)-2-methylphenyl)-1,5-dimethylpyrimidine-2,4(1H,3H)-dione], for which, in assay [1], the EC50 is 0.4 nM and the Emax is 115%. This molecule displayed an EC50 in assay [2] of over 10000 nM.

In the case of `Cc1cc(Oc2nccc3sccc23)ccc1-c1c(C)c(=O)[nH]c(=O)n1C` [Compound 39, 1,5-Dimethyl-6-(2-methyl-4-(thieno[3,2-c]pyridin-4-yloxy)-phenyl)pyrimidine-2,4(1H,3H)-dione], the EC50 in assay [1] is 7 nM; in assay [2] it was 13 nM. The Emax in assay [1] is 104%; in assay [2] it was 30%.

For the molecule `Oc1cc2c(c(Cl)c1O)CCNCC2c1ccccc1` (stereo not drawn) [SKF81297, reference compound], the “forward locomotion compared to vehicle after 1 h” value in assay [3] (61–90 min interval) is reported as “no longer displayed significantly increased forward locomotion”. Moreover, the “number of contralateral rotations vs vehicle” value in assay [3] (90 min) was “significant increases”.
